Reference: the kinase profiling compilation of Christmann-Franck et al. (2016)
Each block holds one compound with its values, some of them ahead of it.

Key:
Assay in all cases: radiometric filter-binding kinase assay, Kinase HotSpot
Settings in all cases: compound 0.5 µM; ATP 10 µM
IKBKB (human) = IKBKB (human) (UniProt O14920)
STK3 (human) = STK3 (human) (UniProt Q13188)
NTRK3 (human) = NTRK3 (human) (UniProt Q16288)
CDK2 CCNA2 (human) = CDK2 CCNA2 (human) (UniProt P24941+P20248)
VRK1 (human) = VRK1 (human) (UniProt Q99986)
RPS6KB1 (human) = RPS6KB1 (human) (UniProt P23443)
ABL2 (human) = ABL2 (human) (UniProt P42684)
AURKA (human) = AURKA (human) (UniProt O14965)
CDK4 CCND3 (human) = CDK4 CCND3 (human) (UniProt P30281+P11802)
MKNK2 (human) = MKNK2 (human) (UniProt Q9HBH9)
PRKCE (human) = PRKCE (human) (UniProt Q02156)
CDK4 CCND1 (human) = CDK4 CCND1 (human) (UniProt P24385+P11802)
DDR2 (human) = DDR2 (human) (UniProt Q16832)
BRSK2 (human) = BRSK2 (human) (UniProt Q8IWQ3)
CAMKK1 (human) = CAMKK1 (human) (UniProt Q8N5S9)
ROCK1 (human) = ROCK1 (human) (UniProt Q13464)
PAK4 (human) = PAK4 (human) (UniProt O96013)
MARK1 (human) = MARK1 (human) (UniProt Q9P0L2)
MATK (human) = MATK (human) (UniProt P42679)
MAP2K1 (human) = MAP2K1 (human) (UniProt Q02750)
PRKD2 (human) = PRKD2 (human) (UniProt Q9BZL6)
CAMKK2 (human) = CAMKK2 (human) (UniProt Q96RR4)
SIK2 (human) = SIK2 (human) (UniProt Q9H0K1)
PHKG2 (human) = PHKG2 (human) (UniProt P15735)
PAK7 (human) = PAK7 (human) (UniProt Q9P286)
PAK2 (human) = PAK2 (human) (UniProt Q13177)
WNK2 (human) = WNK2 (human) (UniProt Q9Y3S1)
[1] = molecular target: TYK2 JH1 catalytic (human) (UniProt P29597)
MAP3K7 TAB1 (human) = MAP3K7 TAB1 (human) (UniProt O43318+Q15750)
IKBKE (human) = IKBKE (human) (UniProt Q14164)
CDC42BPA (human) = CDC42BPA (human) (UniProt Q5VT25)
MAPKAPK2 (human) = MAPKAPK2 (human) (UniProt P49137)
YES1 (human) = YES1 (human) (UniProt P07947)
STK17A (human) = STK17A (human) (UniProt Q9UEE5)
NEK2 (human) = NEK2 (human) (UniProt P51955)
MELK (human) = MELK (human) (UniProt Q14680)
MAP3K2 (human) = MAP3K2 (human) (UniProt Q9Y2U5)
PRKCH (human) = PRKCH (human) (UniProt P24723)
RPS6KA1 KD1 KD2 (human) = RPS6KA1 KD1 KD2 (human) (UniProt Q15418)
AKT1 (human) = AKT1 (human) (UniProt P31749)
MARK2 (human) = MARK2 (human) (UniProt Q7KZI7)

Chain of PRKD2 (human) (Q9BZL6 whole entry, looked up): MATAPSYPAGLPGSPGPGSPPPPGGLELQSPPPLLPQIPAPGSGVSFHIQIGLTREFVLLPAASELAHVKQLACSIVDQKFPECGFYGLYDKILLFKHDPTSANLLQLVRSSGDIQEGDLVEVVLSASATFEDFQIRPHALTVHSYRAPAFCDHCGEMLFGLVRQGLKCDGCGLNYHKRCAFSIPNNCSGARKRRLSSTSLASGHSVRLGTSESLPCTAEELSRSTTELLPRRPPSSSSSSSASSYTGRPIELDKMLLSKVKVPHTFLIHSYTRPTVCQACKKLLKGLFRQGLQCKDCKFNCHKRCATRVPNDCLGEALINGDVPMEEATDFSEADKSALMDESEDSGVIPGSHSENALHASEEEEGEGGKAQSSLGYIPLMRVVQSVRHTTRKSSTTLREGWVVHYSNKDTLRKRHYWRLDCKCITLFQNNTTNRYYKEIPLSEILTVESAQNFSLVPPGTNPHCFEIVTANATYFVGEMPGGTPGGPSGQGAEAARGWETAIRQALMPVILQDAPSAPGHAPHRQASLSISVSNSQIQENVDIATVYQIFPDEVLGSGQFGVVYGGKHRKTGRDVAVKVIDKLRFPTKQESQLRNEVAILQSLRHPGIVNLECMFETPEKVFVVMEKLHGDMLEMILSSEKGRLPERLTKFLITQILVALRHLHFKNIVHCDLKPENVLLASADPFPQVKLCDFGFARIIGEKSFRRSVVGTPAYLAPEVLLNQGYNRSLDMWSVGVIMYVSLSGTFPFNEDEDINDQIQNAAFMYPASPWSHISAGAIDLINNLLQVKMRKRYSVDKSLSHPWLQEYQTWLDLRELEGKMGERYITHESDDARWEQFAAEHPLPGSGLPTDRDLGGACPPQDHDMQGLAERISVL
Chain of MAP3K7 TAB1 (human) (O43318 whole entry, looked up): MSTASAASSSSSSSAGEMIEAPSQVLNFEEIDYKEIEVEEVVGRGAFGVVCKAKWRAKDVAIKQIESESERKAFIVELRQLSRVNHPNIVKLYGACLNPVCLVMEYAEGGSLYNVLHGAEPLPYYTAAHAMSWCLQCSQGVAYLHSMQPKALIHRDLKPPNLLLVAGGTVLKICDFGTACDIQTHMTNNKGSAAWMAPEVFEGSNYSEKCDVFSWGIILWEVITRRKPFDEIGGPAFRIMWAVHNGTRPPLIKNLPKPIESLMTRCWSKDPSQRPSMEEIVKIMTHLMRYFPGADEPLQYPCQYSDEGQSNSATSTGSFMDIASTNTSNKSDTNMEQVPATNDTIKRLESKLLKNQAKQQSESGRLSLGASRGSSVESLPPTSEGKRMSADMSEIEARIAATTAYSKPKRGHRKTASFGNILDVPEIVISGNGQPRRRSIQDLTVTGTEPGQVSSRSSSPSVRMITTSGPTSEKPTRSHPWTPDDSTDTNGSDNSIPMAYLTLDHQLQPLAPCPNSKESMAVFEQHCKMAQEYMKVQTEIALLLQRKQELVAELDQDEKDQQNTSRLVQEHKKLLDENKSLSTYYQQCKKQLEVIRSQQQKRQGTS
Chain of MAP3K7 TAB1 (human) (Q15750 whole entry, looked up): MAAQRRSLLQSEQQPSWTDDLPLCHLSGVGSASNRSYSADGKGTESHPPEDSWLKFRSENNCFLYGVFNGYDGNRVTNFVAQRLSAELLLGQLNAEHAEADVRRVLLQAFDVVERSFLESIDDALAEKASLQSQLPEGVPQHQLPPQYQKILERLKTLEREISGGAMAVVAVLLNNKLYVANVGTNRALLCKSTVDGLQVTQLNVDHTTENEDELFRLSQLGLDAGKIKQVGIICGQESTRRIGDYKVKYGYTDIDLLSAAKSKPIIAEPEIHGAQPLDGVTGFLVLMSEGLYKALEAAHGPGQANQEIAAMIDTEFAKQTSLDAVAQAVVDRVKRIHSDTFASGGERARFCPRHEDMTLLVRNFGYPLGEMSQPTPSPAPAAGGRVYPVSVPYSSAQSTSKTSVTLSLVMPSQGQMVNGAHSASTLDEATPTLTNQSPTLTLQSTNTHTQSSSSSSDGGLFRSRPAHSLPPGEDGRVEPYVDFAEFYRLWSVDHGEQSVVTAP
Chain of CDK4 CCND3 (human) (P11802 whole entry, looked up): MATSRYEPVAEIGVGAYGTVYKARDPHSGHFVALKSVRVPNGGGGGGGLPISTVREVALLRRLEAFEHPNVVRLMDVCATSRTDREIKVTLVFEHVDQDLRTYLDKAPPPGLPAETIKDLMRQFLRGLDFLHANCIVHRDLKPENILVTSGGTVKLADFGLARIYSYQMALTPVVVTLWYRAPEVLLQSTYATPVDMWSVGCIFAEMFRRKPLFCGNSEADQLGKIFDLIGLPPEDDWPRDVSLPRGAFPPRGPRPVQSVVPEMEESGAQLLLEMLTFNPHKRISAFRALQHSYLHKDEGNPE
Chain of CDK4 CCND3 (human) (P30281 whole entry, looked up): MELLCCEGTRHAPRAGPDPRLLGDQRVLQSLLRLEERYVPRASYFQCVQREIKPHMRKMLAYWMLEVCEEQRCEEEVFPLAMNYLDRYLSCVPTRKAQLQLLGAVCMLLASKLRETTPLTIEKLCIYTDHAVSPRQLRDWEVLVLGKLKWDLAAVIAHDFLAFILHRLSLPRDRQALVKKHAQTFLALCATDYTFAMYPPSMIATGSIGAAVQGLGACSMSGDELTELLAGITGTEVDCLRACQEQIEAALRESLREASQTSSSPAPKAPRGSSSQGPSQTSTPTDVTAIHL
Chain of CDK4 CCND1 (human) (P11802 whole entry, looked up): as the sequence (P11802 whole entry, looked up) above
Chain of CDK4 CCND1 (human) (P24385 whole entry, looked up): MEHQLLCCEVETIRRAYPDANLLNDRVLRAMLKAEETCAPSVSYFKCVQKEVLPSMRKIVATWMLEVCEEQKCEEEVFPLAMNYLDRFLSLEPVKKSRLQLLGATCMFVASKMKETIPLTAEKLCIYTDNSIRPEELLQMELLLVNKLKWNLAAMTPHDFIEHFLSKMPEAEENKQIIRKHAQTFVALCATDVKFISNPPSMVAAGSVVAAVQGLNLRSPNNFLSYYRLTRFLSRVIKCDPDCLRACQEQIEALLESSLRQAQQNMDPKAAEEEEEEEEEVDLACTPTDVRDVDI
Chain of SIK2 (human) (Q9H0K1 whole entry, looked up): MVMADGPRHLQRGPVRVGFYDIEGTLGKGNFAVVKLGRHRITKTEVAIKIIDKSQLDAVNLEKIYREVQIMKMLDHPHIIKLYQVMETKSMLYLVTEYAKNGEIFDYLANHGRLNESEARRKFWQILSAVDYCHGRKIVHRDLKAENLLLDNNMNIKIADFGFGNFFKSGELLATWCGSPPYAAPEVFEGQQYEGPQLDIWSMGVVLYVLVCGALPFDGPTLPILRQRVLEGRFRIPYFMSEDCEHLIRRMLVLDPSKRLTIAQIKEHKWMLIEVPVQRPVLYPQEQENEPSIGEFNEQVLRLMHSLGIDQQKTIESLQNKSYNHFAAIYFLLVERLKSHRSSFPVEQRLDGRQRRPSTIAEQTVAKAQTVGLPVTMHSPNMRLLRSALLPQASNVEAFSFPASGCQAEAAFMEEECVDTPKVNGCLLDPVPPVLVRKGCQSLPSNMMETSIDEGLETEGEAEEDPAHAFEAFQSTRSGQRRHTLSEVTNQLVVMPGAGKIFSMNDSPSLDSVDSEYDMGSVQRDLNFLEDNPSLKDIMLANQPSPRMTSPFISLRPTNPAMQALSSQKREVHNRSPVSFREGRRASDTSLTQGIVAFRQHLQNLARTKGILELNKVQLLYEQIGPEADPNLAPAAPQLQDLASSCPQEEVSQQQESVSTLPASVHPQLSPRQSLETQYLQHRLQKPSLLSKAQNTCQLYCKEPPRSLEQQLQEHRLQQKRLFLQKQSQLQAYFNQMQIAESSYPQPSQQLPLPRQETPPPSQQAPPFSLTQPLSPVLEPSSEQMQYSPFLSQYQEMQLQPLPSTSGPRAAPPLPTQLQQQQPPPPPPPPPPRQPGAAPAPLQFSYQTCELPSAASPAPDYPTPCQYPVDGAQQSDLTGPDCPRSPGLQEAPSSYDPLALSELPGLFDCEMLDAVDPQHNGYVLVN
Chain of VRK1 (human) (Q99986 whole entry, looked up): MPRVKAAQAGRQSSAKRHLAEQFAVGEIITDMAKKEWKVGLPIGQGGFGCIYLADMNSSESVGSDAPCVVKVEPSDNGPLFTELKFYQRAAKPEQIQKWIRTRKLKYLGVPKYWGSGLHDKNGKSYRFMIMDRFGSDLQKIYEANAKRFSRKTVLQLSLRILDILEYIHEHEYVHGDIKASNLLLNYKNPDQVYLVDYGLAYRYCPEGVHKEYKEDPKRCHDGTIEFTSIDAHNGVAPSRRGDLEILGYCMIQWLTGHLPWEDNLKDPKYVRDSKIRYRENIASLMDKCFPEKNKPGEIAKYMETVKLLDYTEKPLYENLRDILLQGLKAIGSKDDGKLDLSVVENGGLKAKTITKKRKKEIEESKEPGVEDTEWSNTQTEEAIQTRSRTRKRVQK
Chain of AKT1 (human) (P31749 whole entry, looked up): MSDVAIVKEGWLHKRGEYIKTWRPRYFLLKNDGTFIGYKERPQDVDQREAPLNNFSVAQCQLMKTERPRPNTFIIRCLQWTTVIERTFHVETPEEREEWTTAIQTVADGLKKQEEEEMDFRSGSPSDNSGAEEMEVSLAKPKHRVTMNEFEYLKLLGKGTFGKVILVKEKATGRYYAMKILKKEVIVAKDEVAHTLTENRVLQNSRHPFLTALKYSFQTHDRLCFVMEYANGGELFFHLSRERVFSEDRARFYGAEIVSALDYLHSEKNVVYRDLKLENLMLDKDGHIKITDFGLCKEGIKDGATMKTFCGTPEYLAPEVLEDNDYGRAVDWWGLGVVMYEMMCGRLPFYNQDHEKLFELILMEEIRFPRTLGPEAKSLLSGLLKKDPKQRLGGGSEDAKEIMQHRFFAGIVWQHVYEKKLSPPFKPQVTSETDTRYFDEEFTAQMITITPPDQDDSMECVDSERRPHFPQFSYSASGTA

SMILES: Cn1cnc2cc3c(Nc4cccc(Br)c4)ncnc3cc21
residual activity (IKBKB (human)): 104%
residual activity (STK3 (human)): 89.9%
residual activity (NTRK3 (human)): 81.4%
residual activity (CDK2 CCNA2 (human)): 90.1%
residual activity (VRK1 (human)): 100%
residual activity (RPS6KB1 (human)): 100%
residual activity (ABL2 (human)): 37%
residual activity (AURKA (human)): 87.8%
residual activity (CDK4 CCND3 (human)): 95.9%
residual activity (MKNK2 (human)): 32.2%
residual activity (PRKCE (human)): 87.8%
residual activity (CDK4 CCND1 (human)): 84%
residual activity (DDR2 (human)): 102%
residual activity (BRSK2 (human)): 88.6%
residual activity (CAMKK1 (human)): 107%
residual activity (ROCK1 (human)): 98.6%
residual activity (PAK4 (human)): 105%
residual activity (MARK1 (human)): 94.3%
residual activity (MATK (human)): 85.9%
residual activity (MAP2K1 (human)): 113%
residual activity (PRKD2 (human)): 82.6%
residual activity (CAMKK2 (human)): 99.6%
residual activity (SIK2 (human)): 101%
residual activity (PHKG2 (human)): 103%
residual activity (PAK7 (human)): 86.1%
residual activity (PAK2 (human)): 99.8%
residual activity (WNK2 (human)): 89.7%
residual activity [1]: 112%
residual activity (MAP3K7 TAB1 (human)): 98.6%
residual activity (IKBKE (human)): 98.7%
residual activity (CDC42BPA (human)): 93.2%
residual activity (MAPKAPK2 (human)): 104%
residual activity (YES1 (human)): 45.7%
residual activity (STK17A (human)): 82.5%
residual activity (NEK2 (human)): 103%
residual activity (MELK (human)): 89%
residual activity (MAP3K2 (human)): 97.6%
residual activity (PRKCH (human)): 81.2%
residual activity (RPS6KA1 KD1 KD2 (human)): 103%
residual activity (AKT1 (human)): 89.1%
residual activity (MARK2 (human)): 96.6%

SMILES: O=C1Cc2c([nH]c3ccc(Br)cc23)-c2ccccc2N1
residual activity (IKBKB (human)): 101%
residual activity (STK3 (human)): 83.2%
residual activity (NTRK3 (human)): 70.7%
residual activity (CDK2 CCNA2 (human)): 37.4%
residual activity (VRK1 (human)): 87.3%
residual activity (RPS6KB1 (human)): 103%
residual activity (ABL2 (human)): 84.9%
residual activity (AURKA (human)): 99.7%
residual activity (CDK4 CCND3 (human)): 89%
residual activity (MKNK2 (human)): 102%
residual activity (PRKCE (human)): 96.9%
residual activity (CDK4 CCND1 (human)): 84%
residual activity (DDR2 (human)): 98.4%
residual activity (BRSK2 (human)): 62.7%
residual activity (CAMKK1 (human)): 99.8%
residual activity (ROCK1 (human)): 96.1%
residual activity (PAK4 (human)): 92.2%
residual activity (MARK1 (human)): 88.3%
residual activity (MATK (human)): 93.6%
residual activity (MAP2K1 (human)): 84.3%
residual activity (PRKD2 (human)): 100%
residual activity (CAMKK2 (human)): 77.8%
residual activity (SIK2 (human)): 63.5%
residual activity (PHKG2 (human)): 98.9%
residual activity (PAK7 (human)): 85.1%
residual activity (PAK2 (human)): 95.5%
residual activity (WNK2 (human)): 112%
residual activity [1]: 81.7%
residual activity (MAP3K7 TAB1 (human)): 84.2%
residual activity (IKBKE (human)): 89.8%
residual activity (CDC42BPA (human)): 99%
residual activity (MAPKAPK2 (human)): 101%
residual activity (YES1 (human)): 59.1%
residual activity (STK17A (human)): 102%
residual activity (NEK2 (human)): 87.1%
residual activity (MELK (human)): 74.8%
residual activity (MAP3K2 (human)): 94.2%
residual activity (PRKCH (human)): 95.3%
residual activity (RPS6KA1 KD1 KD2 (human)): 90.8%
residual activity (AKT1 (human)): 99.9%
residual activity (MARK2 (human)): 74.3%

SMILES: Cc1nc2cc3nc(-c4cccs4)cnc3cc2n1C
residual activity (IKBKB (human)): 103%
residual activity (STK3 (human)): 97.1%
residual activity (NTRK3 (human)): 59.9%
residual activity (CDK2 CCNA2 (human)): 104%
residual activity (VRK1 (human)): 95.6%
residual activity (RPS6KB1 (human)): 95%
residual activity (ABL2 (human)): 100%
residual activity (AURKA (human)): 84.8%
residual activity (CDK4 CCND3 (human)): 101%
residual activity (MKNK2 (human)): 108%
residual activity (PRKCE (human)): 108%
residual activity (CDK4 CCND1 (human)): 108%
residual activity (DDR2 (human)): 108%
residual activity (BRSK2 (human)): 98%
residual activity (CAMKK1 (human)): 127%
residual activity (ROCK1 (human)): 97.8%
residual activity (PAK4 (human)): 126%
residual activity (MARK1 (human)): 102%
residual activity (MATK (human)): 100%
residual activity (MAP2K1 (human)): 89.7%
residual activity (PRKD2 (human)): 106%
residual activity (CAMKK2 (human)): 112%
residual activity (SIK2 (human)): 112%
residual activity (PHKG2 (human)): 102%
residual activity (PAK7 (human)): 114%
residual activity (PAK2 (human)): 102%
residual activity (WNK2 (human)): 123%
residual activity [1]: 102%
residual activity (MAP3K7 TAB1 (human)): 92.5%
residual activity (IKBKE (human)): 89.8%
residual activity (CDC42BPA (human)): 109%
residual activity (MAPKAPK2 (human)): 95.4%
residual activity (YES1 (human)): 66.9%
residual activity (STK17A (human)): 80.5%
residual activity (NEK2 (human)): 97%
residual activity (MELK (human)): 95.6%
residual activity (MAP3K2 (human)): 90.2%
residual activity (PRKCH (human)): 96.8%
residual activity (RPS6KA1 KD1 KD2 (human)): 99.4%
residual activity (AKT1 (human)): 114%
residual activity (MARK2 (human)): 81.4%

residual activity (IKBKB (human)): 96.1%
residual activity (STK3 (human)): 19.9%
residual activity (NTRK3 (human)): 2.17%
residual activity (CDK2 CCNA2 (human)): 29.6%
residual activity (VRK1 (human)): 86.3%
residual activity (RPS6KB1 (human)): 75.9%
residual activity (ABL2 (human)): 60.3%
residual activity (AURKA (human)): 21.3%
residual activity (CDK4 CCND3 (human)): 98.9%
residual activity (MKNK2 (human)): 82.1%
residual activity (PRKCE (human)): 96.5%
residual activity (CDK4 CCND1 (human)): 70.9%
residual activity (DDR2 (human)): 101%
residual activity (BRSK2 (human)): 28%
residual activity (CAMKK1 (human)): 53.6%
residual activity (ROCK1 (human)): 101%
residual activity (PAK4 (human)): 77.1%
residual activity (MARK1 (human)): 74.8%
residual activity (MATK (human)): 98%
residual activity (MAP2K1 (human)): 99.6%
residual activity (PRKD2 (human)): 89%
residual activity (CAMKK2 (human)): 66.8%
residual activity (SIK2 (human)): 89.8%
residual activity (PHKG2 (human)): 60.7%
residual activity (PAK7 (human)): 89.3%
residual activity (PAK2 (human)): 96.7%
residual activity (WNK2 (human)): 99.8%
residual activity [1]: 24.3%
residual activity (IKBKE (human)): 75.1%
residual activity (CDC42BPA (human)): 93.7%
residual activity (MAPKAPK2 (human)): 105%
residual activity (YES1 (human)): 45.1%
residual activity (STK17A (human)): 46%
residual activity (NEK2 (human)): 109%
residual activity (MELK (human)): 33.3%
residual activity (MAP3K2 (human)): 94.6%
residual activity (PRKCH (human)): 74.4%
residual activity (RPS6KA1 KD1 KD2 (human)): 39.6%
residual activity (AKT1 (human)): 97.8%
residual activity (MARK2 (human)): 78.4%
SMILES: O=C1Nc2ccccc2/C1=C1\Nc2ccccc2\C1=N/O

SMILES: CC(C)[C@H](CO)Nc1nc(Nc2cc(N)cc(Cl)c2)c2ncn(C(C)C)c2n1
residual activity (IKBKB (human)): 104%
residual activity (STK3 (human)): 70%
residual activity (NTRK3 (human)): 4.42%
residual activity (VRK1 (human)): 85.8%
residual activity (RPS6KB1 (human)): 95.5%
residual activity (ABL2 (human)): 21.3%
residual activity (AURKA (human)): 80.5%
residual activity (MKNK2 (human)): 113%
residual activity (PRKCE (human)): 105%
residual activity (DDR2 (human)): 128%
residual activity (BRSK2 (human)): 88.2%
residual activity (CAMKK1 (human)): 86.8%
residual activity (ROCK1 (human)): 90%
residual activity (PAK4 (human)): 102%
residual activity (MARK1 (human)): 87.5%
residual activity (MATK (human)): 111%
residual activity (MAP2K1 (human)): 91.3%
residual activity (PRKD2 (human)): 103%
residual activity (CAMKK2 (human)): 33.2%
residual activity (SIK2 (human)): 104%
residual activity (PHKG2 (human)): 105%
residual activity (PAK7 (human)): 44.3%
residual activity (PAK2 (human)): 95.5%
residual activity (WNK2 (human)): 112%
residual activity [1]: 57.9%
residual activity (MAP3K7 TAB1 (human)): 51.3%
residual activity (IKBKE (human)): 88.4%
residual activity (CDC42BPA (human)): 99.4%
residual activity (MAPKAPK2 (human)): 92.8%
residual activity (YES1 (human)): 7.03%
residual activity (STK17A (human)): 96.3%
residual activity (NEK2 (human)): 94.4%
residual activity (MELK (human)): 51.5%
residual activity (MAP3K2 (human)): 83.1%
residual activity (PRKCH (human)): 99.4%
residual activity (RPS6KA1 KD1 KD2 (human)): 37.2%
residual activity (AKT1 (human)): 117%
residual activity (MARK2 (human)): 74.1%
